The subject of test [1] is E. Coli bacteria. Kind of test: bacterial plates, antibiotic susceptibility gel diffusion testing. In kind it is cell-based. The following applies: 1 mg amounts; for kill zone on bacterial plate, cooked powder: antibiotic powder heated to 220 Celsius for 5 minutes. Here is the method:
(§1) In another example embodiment (example 3), PLA pellets were run through a filament extruder with 2% gentamicine powder at 175 Celsius. The resulting filament was tested on bacterial plates using antibiotic susceptibility gel diffusion testing using E. Coli bacteria. A kill zone was observed around the filament. […] The filament is run through a 3D printer head nozzle at 220 Celsius and 300 um fibers are created. […] It should be noted that bacterial plates and cultures were carried out as close to Kirby-Bauer ISO standards as possible being that of 100 mm Mueller Hinton plates or Mueller Hinton broths. E. Coli colonies (Sigma Aldrich Vitroid Origin) used to seed plates were taken from 0.5 McFarland standard solutions in 50 uL quantities. Control plates and broths were used. Control PLA printed discs, beads, stents and catheters were used to compare against antibiotic filaments. Molded bone cement beads, discs and filaments made of Ortho-Right LV bone cements were used as comparison for no antibiotic and antibiotic controls.

Test [2] deals with E. Coli bacteria. Briefly: bacterial broth culture. It counts as cell-based. Particulars: 1 mg amounts; for bacterial growth in broth culture, cooked powder: antibiotic powder heated to 220 Celsius for 5 minutes. Here is the method:
as §1

With `NC[C@H]1O[C@H](O[C@H]2[C@H](O)[C@@H](O[C@H]3O[C@H](CO)[C@@H](O)[C@H](N)[C@H]3O)[C@H](N)C[C@@H]2N)[C@H](N)C[C@@H]1O` [Tobramycin], in test [1], the “kill zone on bacterial plate, cooked powder” value was “kill zones” and the “kill zone on bacterial plate, uncooked control powder” value is “kill zones”. In test [2], the “bacterial growth in broth culture, cooked powder” value was “no bacterial growth” and the “bacterial growth in broth culture, uncooked control powder” value is recorded as “no bacterial growth”.
In the case of Gentamicin, in test [1], the “kill zone on bacterial plate, cooked powder” value was “kill zones” and the “kill zone on bacterial plate, uncooked control powder” value is listed as “kill zones”. Further, in test [2], the “bacterial growth in broth culture, cooked powder” value is “no bacterial growth” and the “bacterial growth in broth culture, uncooked control powder” value is listed as “no bacterial growth”.
